Assay [1] concerns HGF. Nature of the assay: HGF secretion by HHFK (ELISA/BioPlex). The assay is classed as cell-based, human. Particulars: 10^−7 M, 48h. As to the method:
(§1) NHDF, HFDPC, HHFK and NHEM cells were treated with the peptides studied for 48h. At the end of the treatment, cell supernatants were collected and stored at −80° C. until analysis. The factors of interest secreted into the supernatant were assayed by ELISA® (R&D) or BioPlex® (BioRad®).
(§2) The results are expressed as percent increase in the concentration of the factor present in the supernatant relative to the untreated control. The intensity of the effect varies as a function of the concentration of the peptide studied and of the cell type treated.

The subject of assay [2] is SCF. Description: SCF secretion by HHFK (ELISA/BioPlex). The assay is classed as cell-based, human. The conditions noted are these: 10^−7 M, 48h. The method, then: as §1, §2
Assay [3] deals with VEGF. Description: VEGF secretion by HFDPC (ELISA/BioPlex). The assay is classed as cell-based, human. Particulars: 48h. The method, then:
as §1, §2

The test system of assay [4] is BMP2. Nature of the assay: BMP2 secretion by HFDPC (ELISA/BioPlex). Particulars: 10^−5 M, 48h. The assay is classed as cell-based, human. As to the method: as §1, §2
The test system of assay [5] is NGF. Nature of the assay: NGF secretion by HHFK (ELISA/BioPlex). Particulars: 10^−7 M, 48h. The class given is cell-based, human. As to the method:
as §1, §2

Assay [6] has as its system microdissected hairs from scalp surgery specimens. Nature of the assay: Growth of isolated hair ex vivo. The assay is classed as cell-based, human. Particulars: for Growth at D 11/D 12 Vs Control: ex vivo isolated hair. As to the method:
This study was carried out on microdissected hairs from scalp surgery specimens from women aged 52 to 71 years. Isolated hairs were kept alive for 11 to 12 days in Williams medium, under conventional cell culture conditions (37° C., 5% CO2). […]
To evaluate the effect of (1), (6) or (9) on hair growth, the hairs were photographed and their lengths measured using image analysis software. Thus, the growth of the hairs between D0 and D11/D12 could be calculated and compared with that of the untreated control. At the end of the treatments (D11 or D12), the hairs were collected and frozen or fixed for immunolabeling and histological staining.

The test system of assay [7] is VEGF. Description: VEGF secretion by NHDF (ELISA/BioPlex). Particulars: 48h. The assay is classed as cell-based, human. As to the method: as §1, §2
Another assay has as its system KGF. Nature of the assay: KGF secretion by HFDPC (ELISA/BioPlex). The conditions noted are these: 48h. The class given is cell-based, human. The method, then:
as §1, §2

For assay [8], the system named is VEGF. Description: VEGF secretion by NHEM (ELISA/BioPlex). The class given is cell-based, human. The conditions noted are these: 10^−7 M, 48h. The method, then: as §1, §2
The test system of a further assay is PDGF. Description: PDGF secretion by HFDPC (ELISA/BioPlex). The class given is cell-based, human. The conditions noted are these: 48h. The method, then:
as §1, §2

The subject of assay [9] is NGF. Description: NGF secretion by NHDF (ELISA/BioPlex). The class given is cell-based, human. Particulars: 48h. The method, then: as §1, §2
The test system of assay [10] is BMP2. Nature of the assay: qPCR (TLDA) BMP2 gene expression in HFDPC. The class given is cell-based, human. Particulars: peptide 10^−9, 24 hours, relative to untreated controls. The method, then: (§3) To study the effect of 9 peptides on these genes, HFDPC were treated for 24 hours with the molecules tested at 10^−7M and 10^−9M concentrations.
(§4) RNA was extracted and purified from cell pellets using the RNA XS Kit (Macherey-Nagel). RNA quantification was carried out with a NanoDrop device and sample quality was verified on a Bioanalyzer with RNA 6000 Nano chips (Agilent). cDNA was synthesized from 300 ng of RNA using the High-Capacity cDNA Reverse Transcription Kit (LifeTech). Quality-control qPCR assays of the cDNA were carried out in microplates on the reference gene, GAPDH, and the SIRT1 gene.
(§5) Final qPCR experiments were carried out in a 1 μl volume on microfluidic cards (TaqMan Low Density Arrays, LifeTech) and the ABI 7900HT qPCR device. Amplification reactions were performed in duplicate using 1 to 2 ng of cDNA per qPCR reaction and TaqMan Universal Master Mix II (LifeTech).
(§6) Ct values were obtained using the RQ Manager software. For analyses of qPCR results, Ct values were limited to 35 cycles and the duplicate assays are averaged. The GeneXPro software was used for the studies of stability and of selection of the best reference genes. Expression variations are calculated by the relative quantification method and are expressed as percent increase in expression of the gene of interest relative to the untreated controls.

The test system of assay [11] is genes whose expression is reduced in subjects characterized by alopecia. Nature of the assay: qPCR (TLDA) overall statement, genes involved in alopecia, HFDPC. The class given is cell-based, human. The conditions noted are these: summary of Table 1. The method, then:
as §3, §4, §5, §6

The next assay concerns IGF1. Nature of the assay: qPCR (TLDA) IGF1 gene expression in HFDPC. The class given is cell-based, human. The conditions noted are these: peptide 10^−9, 24 hours, relative to untreated controls. The method, then: as §3, §4, §5, §6
Assay [12] concerns normal human dermal fibroblasts (NHDF). Description: CellTiter-Blue proliferation of NHDF. The conditions noted are these: 10^−5M, 72 hours. The assay is classed as cell-based. As to the method: Cell proliferation and viability were evaluated in vitro with a kit from Promega, CellTiter-Blue® Cell Viability Assay, for estimating the number of living cells present in the culture. This kit is based on detection, by measurement of fluorescence, of conversion of the dye, resazurin, into a fluorescent product (resorufin) by living and thus metabolically active cells.
The effect of the peptides tested, (1) and (9), at 4 different concentrations (10^−5, 10^−7, 10^−9 and 10^−11M) was examined on five cell types: immortalized human skin keratinocytes (HaCaT), human hair follicular keratinocytes (HHFK), normal human dermal fibroblasts (NHDF), hair follicle dermal papilla cells (HFDPC), and normal human epidermal melanocytes (NHEM) exposed to the molecule studied for 72 hours.

For assay [13], the system named is VEGF. Description: qPCR (TLDA) VEGF gene expression in HFDPC. The assay is classed as cell-based, human. The conditions noted are these: peptide 10^−5 M (table title), 24 hours, relative to untreated controls. As to the method:
as §4, §5, §6

For assay [14], the system named is SCF. Nature of the assay: SCF secretion by NHDF (ELISA/BioPlex). The assay is classed as cell-based, human. Particulars: 10^−5 M, 48h. As to the method:
as §1, §2

Assay [15] deals with NGF. Nature of the assay: NGF secretion by HFDPC (ELISA/BioPlex). The assay is classed as cell-based, human. Particulars: 10^−9 M, 48h. The method, then: as §1, §2
Assay [16] relates to HGF. Description: HGF secretion by HFDPC (ELISA/BioPlex). The class given is cell-based, human. Particulars: 10^−9 M, 48h. The method, then:
as §1, §2

In assay [17] the test system is HGF. Description: HGF secretion by NHDF (ELISA/BioPlex). The assay is classed as cell-based, human. Particulars: 10^−9 M, 48h. As to the method:
as §1, §2

Marks after values point to notes of the source that are not given here. The star is where a group is joined. Palmitoyl = CCCCCCCCCCCCCCCC(=O)*

On to “Palm-Ala-Ala-Pro-Ala-Lys-NH2 (Palmitoyl-AAPAK-NH2; SMILES CCCCCCCCCCCCCCCC(=O)N[C@@H](C)C(=O)N[C@@H](C)C(=O)N1CCC[C@H]1C(=O)N[C@@H](C)C(=O)N[C@@H](CCCCN)C(N)=O) [(6)]”, for which the “HGF secretion, percent increase relative to untreated control” value in the assay with HGF [1] is “HGF 52%”. Moreover, the figures for the “SCF secretion, percent increase relative to untreated control” value in the assay with SCF [2] and in the assay with SCF [14] were “SCF 9%” and “SCF 8%”, respectively. The “VEGF secretion, percent increase relative to untreated control” value with VEGF [3] (10^−5 M) is on record as “VEGF 18%”; with VEGF [7] (10^−7 M), “VGF 407%”; in the assay with VEGF [8], “VEGF 15%”. Also, the “BMP2 secretion, percent increase relative to untreated control” value in the assay on BMP2 [4] is on record as “BMP2 44%”. The figures for the “NGF secretion, percent increase relative to untreated control” value in the assay with NGF [5], with NGF [9] (10^−5 M) and in the assay on NGF [9] (10^−7 M) were “NGF 10%”, “NGF 51%” and “NGF 12%”, respectively. The “Growth at D 11/D 12 Vs Control” value in [6] (10^−7 M) is “+28%”; in assay [6] (10^−9 M), “+38%#”. Further, the “growth increase compared with minoxidil sulphate” value in assay [6] (peptide 10^−9M, minoxidil sulphate 10^−5 M) is recorded as “higher than that obtained after treatment with minoxidil sulphate”. The “hair growth after 11 to 12 days of treatment ex vivo (in words)” value in assay [6] (summary of Table 3) is “stimulate hair growth”. Moreover, the “KGF secretion, percent increase relative to untreated control” value in the assay on KGF (10^−5 M) is on record as “KGF 7%”; in the assay on KGF (10^−7 M) it was “KGF 13%”. For the same substance, the “PDGF secretion, percent increase relative to untreated control” value with PDGF (10^−5 M) is reported as “PDGF 15%”; with PDGF (10^−7 M), “PDGF 38%”. In addition, the “% stimulation BMP2 gene expression” value in the assay on BMP2 [10] is 116% (10^−9). Besides, the “stimulation of genes whose expression is reduced in alopecia (in words)” value in assay [11] is listed as “stimulate several genes”. The “% stimulation IGF1 gene expression” value in the assay on IGF1 is given as 94% (10^−9). Also, the “stimulation of proliferation of NHDF” value in assay [12] is reported as “+11%”. In addition, the “% stimulation VEGF gene expression” value with VEGF [13] worked out at 24%.

In the case of “Palm-Ala-Arg-Pro-Ala-Lys-NH2 (Palmitoyl-ARPAK-NH2; SMILES CCCCCCCCCCCCCCCC(=O)N[C@@H](C)C(=O)N[C@@H](CCCNC(=N)N)C(=O)N1CCC[C@H]1C(=O)N[C@@H](C)C(=O)N[C@@H](CCCCN)C(N)=O) [(3)]”, the “VEGF secretion, percent increase relative to untreated control” value is “VEGF 9%” with VEGF [3] (10^−7 M) and “VEGF 48%” with VEGF [7] (10^−9 M). In addition, the “NGF secretion, percent increase relative to untreated control” value is on record as “NGF 6%” with NGF [15] and “NGF 89%” in the assay with NGF [9] (10^−9 M). The “HGF secretion, percent increase relative to untreated control” value in the assay with HGF [16] is reported as “HGF 33%”; with HGF [17], “HGF 5%”. The “KGF secretion, percent increase relative to untreated control” value with KGF (10^−7 M) is “KGF 53%”; with KGF (10^−9 M), “KGF 45%”. Besides, the “PDGF secretion, percent increase relative to untreated control” value in the assay with PDGF (10^−9 M) is on record as “PDGF 39%”. The “stimulation of genes whose expression is reduced in alopecia (in words)” value in assay [11] is reported as “stimulate several genes”. Besides, the “% stimulation VEGF gene expression” value with VEGF [13] is 83%.

The record behind these values is patent US10947273B2, “Peptides of use in the preventive and curative treatment of alopecia” (Institut Europeen de Biologie Cellulaire, priority 2015, dated 2021).
